Data set [1] has as its target Heat shock protein HSP 90-beta (Homo sapiens) (UniProt P08238). Kind of data set: Inhibition of HSP90-dependent client protein Akt degradation in human MCF7 cells after 24 hrs by Western blot analysis. The format is cell-based.
Data set [2] has the same target. In words: Inhibition of HSP90-dependent client protein Raf degradation in human MCF7 cells after 24 hrs by Western blot analysis. It is filed as cell-based. (In general: Immunoblotting shows a protein as a band on a membrane.)
For data set [3] the target is unchanged. Kind of data set: Inhibition of HSP90-dependent client protein Her-2 degradation in human MCF7 cells after 24 hrs by Western blot analysis. The format is cell-based.
The test system of data set [4] is MCF7. Kind of data set: Effect on Hsp90 protein expression in human MCF7 cells at 0.5 to 25 uM after 24 hrs by Western blot analysis. It is filed as functional, cell-based.
Data set [5] relates to MCF7. Kind of data set: Effect on actin expression in human MCF7 cells at 0.5 to 25 uM after 24 hrs by Western blot analysis. The conditions noted are these: mcf7, 24 h. It is filed as ADME, cell-based.
Data set [6] in a line: Inhibition of human SKBR3 cell proliferation. It is filed as functional, cell-based. The conditions noted are these: SK-BR-3.
Data set [7] is described as follows: Antiproliferative activity against estrogen receptor-negative, Her2 overexpressing human SKBR3 cells after 72 hrs by MTS assay. It is filed as functional, cell-based. The conditions noted are these: SK-BR-3, 72 h. In general terms: Tetrazolium dyes change colour on reduction, which living cells bring about.
Data set [8] has as its system MCF7. Kind of data set: Antiproliferative activity against estrogen receptor positive human MCF7 cells after 72 hrs by MTS assay. It is filed as functional, cell-based. The conditions noted are these: MCF7, 72 h.
In data set [9] the test system is HCT-116. Kind of data set: Inhibition of human HCT116 cell proliferation. It is filed as functional, cell-based.
A short description of data set [10]: Inhibition of human PL45 cell proliferation. The format is functional, cell-based.
The subject of data set [11] is LNCaP. Kind of data set: Inhibition of human LNCAP cell proliferation. It is filed as functional, cell-based.
Data set [12] deals with PC-3. Kind of data set: Inhibition of human PC3 cell proliferation. It is filed as functional, cell-based.
Data set [13] can be described thus: Inhibition of human Jurkat T cell cell proliferation. The format is functional, cell-based.

The IC50 is the concentration at which inhibition is half-maximal.

Active and inactive are the calls of the source. The rule behind the calls is not given here.

Heat shock protein HSP 90-beta (Homo sapiens), sequence (P08238 whole entry): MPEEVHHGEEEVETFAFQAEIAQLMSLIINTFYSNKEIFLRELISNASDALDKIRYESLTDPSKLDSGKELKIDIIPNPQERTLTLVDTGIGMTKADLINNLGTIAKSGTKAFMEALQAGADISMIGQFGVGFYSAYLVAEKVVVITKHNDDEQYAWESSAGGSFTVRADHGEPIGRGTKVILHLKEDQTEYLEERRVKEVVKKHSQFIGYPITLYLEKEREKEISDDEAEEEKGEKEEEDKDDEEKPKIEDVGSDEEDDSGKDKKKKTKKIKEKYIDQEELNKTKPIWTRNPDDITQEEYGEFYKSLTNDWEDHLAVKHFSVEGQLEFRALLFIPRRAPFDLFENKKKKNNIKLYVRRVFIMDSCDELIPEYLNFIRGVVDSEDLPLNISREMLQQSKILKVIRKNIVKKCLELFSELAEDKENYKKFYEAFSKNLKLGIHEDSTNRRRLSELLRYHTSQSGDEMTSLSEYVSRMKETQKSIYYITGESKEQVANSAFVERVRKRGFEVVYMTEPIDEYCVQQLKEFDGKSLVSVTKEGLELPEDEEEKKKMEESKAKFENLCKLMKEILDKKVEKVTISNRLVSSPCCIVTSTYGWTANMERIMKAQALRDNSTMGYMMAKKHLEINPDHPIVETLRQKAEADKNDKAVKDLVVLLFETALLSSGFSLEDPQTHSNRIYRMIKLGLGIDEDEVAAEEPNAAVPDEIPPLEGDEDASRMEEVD

Consider `CNC(=O)Oc1ccc2cc(NC(=O)c3ccc(OC)c(-c4cccc(OC)c4)c3)c(=O)oc2c1C`, for which the inhibition entry in [1], in data set [2] and in data set [3] was “Dose-dependent effect” each time. Moreover, the outcome in [4] was inactive. Moreover, in [5], the Activity entry was “Non-toxic”.
For `COc1cccc(-c2cc(C(=O)Nc3cc4ccc(OC5CCN(C)CC5)c(C)c4oc3=O)ccc2OC)c1`, the inhibition entry in data set [1], in data set [2] and in data set [3] was “Dose-dependent effect” in each case. Also, the outcome in data set [4] was inactive. Further, the Activity entry in [5] is on record as “Non-toxic”.
Take `COc1cccc(-c2cc(C(=O)Nc3cc4ccc(O[C@@H]5OC(C)(C)[C@H](OC)[C@@H](O)[C@H]5O)c(C)c4oc3=O)ccc2OC)c1`: the IC50 came to 7.5 µM in [6], 7.5 µM in data set [7] and 18.7 µM in data set [8].
As to `COc1cccc(-c2cc(C(=O)Nc3cc4cc(OC)c(O[C@@H]5OC(C)(C)[C@H](OC)[C@@H](O)[C@H]5O)c(C)c4oc3=O)ccc2OC)c1`, the IC50 is 58.8 µM in [6], 58.8 µM in data set [7] and > 100 µM in [8].
With `COc1cccc(-c2cc(C(=O)Nc3cc4cc(OC)c(OC(C)=O)c(C)c4oc3=O)ccc2OC)c1`, the IC50 in data set [6] came out at 5.72 µM; in data set [9] it was 0.52 µM; in data set [10] it was 4.1 µM; in [11] it was 0.42 µM; in data set [12], 0.97 µM; in [13] it was 0.42 µM. For the same molecule, the IC50 in [8] was determined as 1.5 µM.
With `COc1cccc(-c2cc(C(=O)Nc3cc4ccc(O[C@H]5C[C@H](O)CCO5)c(C)c4oc3=O)ccc2OC)c1`, the IC50 came to 9.28 µM in [7] and 11.2 µM in [8].
For `COc1cccc(-c2cc(C(=O)Nc3cc4ccc(OC5CCCN(C(C)=O)C5)c(C)c4oc3=O)ccc2OC)c1` (centres undefined) the same measures were 10.8 µM and 9.18 µM.
In the case of `COc1cccc(-c2cc(C(=O)Nc3cc4ccc(O[C@@H]5CCC[C@@H](O)[C@H]5O)c(C)c4oc3=O)ccc2OC)c1`, the 50% inhibitory concentration (IC50) in data set [7] and in [8] was > 100 µM throughout.

For the origin of these results see ChEMBL document CHEMBL3217480, “Cytotoxic sugar analogues of an optimized novobiocin scaffold” (Medchemcomm, 2010).
